# Data reported in patent publication US20230150986A1, “ANTAGONISTS OF THE MUSCARINIC ACETYLCHOLINE RECEPTOR M4” (Vanderbilt University, priority 2019, published 2023).
# Where two headings read alike, the source gives them in different places.
# Columns and labels:
# cytochrome P450 2C9 = molecular target: T1, cytochrome P450 2C9 (Homo sapiens, UniProt P11712); assay: Cytochrome P450 cocktail inhibition assay, 2C9 (diclofenac); format: in vitro ADME; conditions: human liver microsomes 0.1 mg/mL; read-out: CYP Inhibition (2C9)
# T1 construct: human liver microsomes (HLM; 0.1 mg/mL); from tissue; host or cells: human liver microsomes
# Procedure: (§1) Solutions of substrates for cytochrome P450 enzymes (1A2: Phenacetin, 10 μM; 2C9: Diclofenac, 5 μM; 2D6: Dextromethorphan, 5 μM; 3A4: Midazolam, 2 μM; as a mixture), test compound (VU6028418; multiple concentrations), and the positive control for pan-P450 inhibition (miconazole; multiple concentrations) were prepared. A reaction mixture of assay buffer (100 mM Kpi at pH 7.4), human liver microsomes (HLM; 0.1 mg/mL), and the substrate mixture were aliquoted into a 96-deepwell plate. The test compound and control were then added to the plate such that the final concentration of test compound ranged from 0.1-30 μM (two replicates per concentration). The assay plate was vortexed (briefly) and pre-incubated at 37° C. in an orbital shaker for 15 minutes. The reaction was initiated by addition of NADPH (1 mM, final concentration) and continued for 8 min before it was quenched by acetonitrile (2× volume) containing an LCMS internal standard (carbamazepine, 50 nM). The plate was then centrifuged (4000 rcf, 4° C., 10 min), and the resulting supernatant was diluted with water (1× volume) for LC-MS/MS. Assay samples were analyzed via electrospray ionization on an AB Sciex API-4000 (Foster City, Calif.) triple-quadrupole mass spectrometer coupled to Agilent Technologies 1290 Infinity series pumps (Santa Clara, Calif.), and a Leap Technologies CTC PAL auto -sampler (Carrboro, NC). Analytes were separated by gradient elution on a Phenomenex Kinetex (C18 2.1×50 mm 5 μm) column (Torrance, Calif.) thermostated at 40° C. The HPLC mobile phase A was 0.1% formic acid in water (pH unadjusted), and the mobile phase B was 0.1% formic acid in acetonitrile (pH unadjusted). […] The total run time was 2.5 min and the HPLC flow rate was 0.5 mL/min. The source temperature was set at 500° C. and mass spectral analyses were performed using multiple reaction monitoring (MRM) with mass transitions specific to each substrate's metabolite utilizing a Turbo-Ionspray® source in positive ionization mode (5.0 kV spray voltage). The test compound and control IC50 values for each enzyme were obtained by quantitating the inhibition of metabolite formation for each substrate. A 0 μM test compound (or control) conditions represented 100% enzymatic activity, and the effect of increasing test compound concentrations on enzymatic activity was then calculated from the % of control activity. Inhibition curves were fitted using XLfit 5.2.2 (four-parameter logistic model, equation 201) in order to calculate the concentration that produced half-maximal inhibition (IC50) of each enzyme.
# cytochrome P450 1A2 = molecular target: T2, cytochrome P450 1A2 (Homo sapiens, UniProt P05177); assay: Cytochrome P450 cocktail inhibition assay, 1A2 (phenacetin); format: in vitro ADME; conditions: human liver microsomes 0.1 mg/mL; read-out: CYP Inhibition (1A2)
# T2 construct: human liver microsomes (HLM; 0.1 mg/mL); from tissue; host or cells: human liver microsomes
# T2 sequence (P05177 1-516): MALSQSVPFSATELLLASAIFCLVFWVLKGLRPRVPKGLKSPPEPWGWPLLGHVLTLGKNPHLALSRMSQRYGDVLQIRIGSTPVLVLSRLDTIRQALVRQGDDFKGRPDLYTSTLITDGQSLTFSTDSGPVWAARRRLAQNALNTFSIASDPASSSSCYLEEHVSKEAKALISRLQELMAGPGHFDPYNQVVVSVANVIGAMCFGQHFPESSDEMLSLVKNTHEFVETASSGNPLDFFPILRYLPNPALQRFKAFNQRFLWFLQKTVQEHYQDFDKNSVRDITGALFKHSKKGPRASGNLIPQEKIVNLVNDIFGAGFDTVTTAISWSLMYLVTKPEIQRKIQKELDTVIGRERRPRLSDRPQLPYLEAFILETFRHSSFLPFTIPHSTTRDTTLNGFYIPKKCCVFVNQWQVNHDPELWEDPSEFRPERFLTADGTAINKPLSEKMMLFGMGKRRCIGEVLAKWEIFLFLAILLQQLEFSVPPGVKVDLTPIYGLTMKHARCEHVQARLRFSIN
# Procedure: as §1
# cytochrome P450 2D6 = molecular target: T3, cytochrome P450 2D6 (Homo sapiens, UniProt P10635); assay: Cytochrome P450 cocktail inhibition assay, 2D6 (dextromethorphan); format: in vitro ADME; conditions: human liver microsomes 0.1 mg/mL; read-out: CYP Inhibition (2D6)
# T3 construct: human liver microsomes (HLM; 0.1 mg/mL); from tissue; host or cells: human liver microsomes
# Procedure: as §1
# P-gp = molecular target: T4, P-gp (Homo sapiens, UniProt P08183); assay: P-gp efflux in MDR1-MDCK cell monolayers; format: in vitro ADME; conditions: dog, pH 7.4, MDCK-MDR1, 5 μM
# T4 construct: expressed in transfected cells; host or cells: MDR1-MDCK
# Procedure: MDR1-MDCK cell monolayers were grown to confluence on collagen-coated, microporous membranes in 12-well assay plates. The permeability assay buffer was Hanks' balanced salt solution containing 10 mM HEPES and 15 mM glucose at a pH of 7.4. The buffer in the receiver chamber also contained 1% bovine serum albumin. The dosing solution concentration was 5 μM of test article in the assay buffer. Cell monolayers were dosed on the apical side (A- to -B) or basolateral side (B- to -A) and incubated at 37° C. with 5% CO2 in a humidified incubator. Samples were taken from the donor and receiver chambers at 120 minutes Each determination was performed in duplicate. The flux of lucifer yellow was also measured post-experimentally for each monolayer to ensure no damage was inflicted to the cell monolayers during the flux period. All samples were assayed by LC-MS/MS using electrospray ionization.
# cytochrome P450 3A4 = molecular target: T5, cytochrome P450 3A4 (Homo sapiens, UniProt P08684); assay: Cytochrome P450 cocktail inhibition assay, 3A4 (midazolam); format: in vitro ADME; conditions: human liver microsomes 0.1 mg/mL; read-out: CYP Inhibition (3A4)
# T5 construct: human liver microsomes (HLM; 0.1 mg/mL); from tissue; host or cells: human liver microsomes
# Procedure: as §1
# mice = conditions: cited from earlier work
# T3 sequence (P10635 whole entry): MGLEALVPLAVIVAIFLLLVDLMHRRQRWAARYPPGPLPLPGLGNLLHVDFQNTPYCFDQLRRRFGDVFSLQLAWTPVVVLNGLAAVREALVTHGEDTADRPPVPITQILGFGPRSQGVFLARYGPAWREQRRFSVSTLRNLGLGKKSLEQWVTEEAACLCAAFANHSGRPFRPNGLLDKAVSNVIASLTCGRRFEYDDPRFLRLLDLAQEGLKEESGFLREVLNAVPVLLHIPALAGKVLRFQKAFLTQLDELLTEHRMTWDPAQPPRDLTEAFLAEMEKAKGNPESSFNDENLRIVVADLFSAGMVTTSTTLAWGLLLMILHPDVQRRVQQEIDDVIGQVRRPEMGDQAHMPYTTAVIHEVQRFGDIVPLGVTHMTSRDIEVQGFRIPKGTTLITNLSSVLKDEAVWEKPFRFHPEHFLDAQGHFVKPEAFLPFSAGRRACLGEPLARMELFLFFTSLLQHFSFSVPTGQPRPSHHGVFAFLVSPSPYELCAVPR
# T4 sequence (P08183 whole entry): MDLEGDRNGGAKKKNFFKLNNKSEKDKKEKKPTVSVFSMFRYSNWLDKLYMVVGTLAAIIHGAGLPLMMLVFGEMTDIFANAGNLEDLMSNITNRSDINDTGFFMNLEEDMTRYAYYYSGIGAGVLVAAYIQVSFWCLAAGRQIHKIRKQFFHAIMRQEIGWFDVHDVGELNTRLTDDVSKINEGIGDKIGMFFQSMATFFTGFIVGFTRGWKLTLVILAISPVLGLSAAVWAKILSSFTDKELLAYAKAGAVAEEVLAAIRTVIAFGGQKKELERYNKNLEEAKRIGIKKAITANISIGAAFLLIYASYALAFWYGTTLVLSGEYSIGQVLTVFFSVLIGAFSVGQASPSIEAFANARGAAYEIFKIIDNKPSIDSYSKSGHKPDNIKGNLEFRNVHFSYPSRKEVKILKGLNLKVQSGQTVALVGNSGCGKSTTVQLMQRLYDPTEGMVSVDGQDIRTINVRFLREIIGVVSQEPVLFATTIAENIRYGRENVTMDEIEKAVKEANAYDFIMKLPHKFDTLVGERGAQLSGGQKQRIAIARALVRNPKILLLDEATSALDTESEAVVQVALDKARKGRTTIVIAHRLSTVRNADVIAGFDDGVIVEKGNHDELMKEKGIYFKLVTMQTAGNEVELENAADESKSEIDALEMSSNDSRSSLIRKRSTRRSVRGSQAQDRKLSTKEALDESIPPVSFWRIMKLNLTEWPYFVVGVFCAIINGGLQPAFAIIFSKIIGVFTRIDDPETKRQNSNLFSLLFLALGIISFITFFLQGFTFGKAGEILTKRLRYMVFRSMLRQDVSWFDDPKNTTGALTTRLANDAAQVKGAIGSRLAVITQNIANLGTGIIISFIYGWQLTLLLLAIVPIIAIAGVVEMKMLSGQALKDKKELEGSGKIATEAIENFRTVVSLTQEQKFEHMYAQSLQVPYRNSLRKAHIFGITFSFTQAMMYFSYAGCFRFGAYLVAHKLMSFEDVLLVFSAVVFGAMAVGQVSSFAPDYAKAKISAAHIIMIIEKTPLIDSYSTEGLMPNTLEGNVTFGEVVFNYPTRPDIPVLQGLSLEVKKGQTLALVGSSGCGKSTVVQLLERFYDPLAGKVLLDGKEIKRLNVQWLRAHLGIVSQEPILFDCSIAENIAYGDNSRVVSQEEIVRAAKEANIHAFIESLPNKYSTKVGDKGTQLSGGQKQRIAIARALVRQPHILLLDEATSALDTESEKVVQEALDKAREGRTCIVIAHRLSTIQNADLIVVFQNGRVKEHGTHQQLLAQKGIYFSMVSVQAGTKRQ
# T1 sequence (P11712 whole entry): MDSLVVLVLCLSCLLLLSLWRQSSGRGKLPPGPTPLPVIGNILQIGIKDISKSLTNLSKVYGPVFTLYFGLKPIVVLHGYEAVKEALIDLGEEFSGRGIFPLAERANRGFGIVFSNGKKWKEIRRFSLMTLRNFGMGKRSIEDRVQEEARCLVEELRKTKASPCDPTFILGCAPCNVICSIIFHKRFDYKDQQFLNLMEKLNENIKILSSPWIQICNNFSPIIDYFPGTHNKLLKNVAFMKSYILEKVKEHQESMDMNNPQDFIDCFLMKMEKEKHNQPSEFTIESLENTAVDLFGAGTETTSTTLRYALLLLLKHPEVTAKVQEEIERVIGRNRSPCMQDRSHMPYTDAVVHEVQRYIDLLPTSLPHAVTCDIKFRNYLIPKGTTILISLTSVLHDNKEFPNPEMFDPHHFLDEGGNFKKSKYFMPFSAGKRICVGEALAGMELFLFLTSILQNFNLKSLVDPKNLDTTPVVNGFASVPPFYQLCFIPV
# T5 sequence (P08684 whole entry): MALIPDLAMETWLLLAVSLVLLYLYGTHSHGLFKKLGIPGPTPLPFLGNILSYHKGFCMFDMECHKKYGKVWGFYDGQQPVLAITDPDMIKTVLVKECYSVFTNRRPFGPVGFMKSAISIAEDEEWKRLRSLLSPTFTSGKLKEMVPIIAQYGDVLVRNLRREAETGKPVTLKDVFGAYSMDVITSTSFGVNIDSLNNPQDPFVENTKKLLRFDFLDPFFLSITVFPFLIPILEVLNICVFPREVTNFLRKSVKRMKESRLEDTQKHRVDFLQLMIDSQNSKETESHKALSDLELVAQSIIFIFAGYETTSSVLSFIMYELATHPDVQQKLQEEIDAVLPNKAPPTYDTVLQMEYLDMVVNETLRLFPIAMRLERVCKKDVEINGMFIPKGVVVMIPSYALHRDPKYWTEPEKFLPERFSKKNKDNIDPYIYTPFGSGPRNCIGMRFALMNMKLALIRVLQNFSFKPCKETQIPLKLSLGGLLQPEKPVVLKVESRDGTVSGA
compound,measurement,setting,value
Fc1ccc(Cl)c(-c2ccc(N[C@H]3C[C@@H]4CN(Cc5ccccn5)C[C@@H]4C3)nn2)c1 [reference compound],IC50,cytochrome P450 2C9,10.3 µM
same,IC50,cytochrome P450 1A2,> 30 µM
same,IC50,cytochrome P450 2D6,> 30 µM
same,"efflux ratio at 120 min, 5 μM",P-gp,12.3
same,IC50,cytochrome P450 3A4,21.7 µM
Fc1ccc(Cl)c(-c2ccc(N[C@H]3C[C@@H]4CN(CC5CCOCC5)C[C@@H]4C3)nn2)c1 [reference compound],IC50,cytochrome P450 2C9,0.15 µM
same,IC50,cytochrome P450 1A2,1.1 µM
same,IC50,cytochrome P450 2D6,5.3 µM
same,"efflux ratio at 120 min, 5 μM",P-gp,14
same,IC50,cytochrome P450 3A4,0.97 µM
CN1[C@@H]2C[C@@H](OC(=O)[C@H](CO)c3ccccc3)C[C@H]1[C@@H]1O[C@@H]12 [scopolamine],effect on catalepsy induced by haloperidol,mice; M4 KO mice,ineffective
same,effect on catalepsy induced by haloperidol,mice; WT mice,completely reversed
